Test results taken from the supplement of paper PMC10307832.

How the values were obtained:
Assay in all cases: relative viability (nuclei count vs DMSO), 5 days (fraction); higher = more cells survive
NCI-H322M = system: NCI-H322M
Outline: (§1)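 Lung cancer cell lines in 1536-well plates were dosed by pin tool the day after seeding, either with one drug alone or with a fixed anchor-drug dose plus five library-drug doses (not always all listed) in √10 steps. After 5 days, cells were fixed and their nuclei stained in one step (final 0.05% Triton X-100, 1% formaldehyde, 1 ug/ml Hoechst), then counted on 4× images. Relative viability is the nuclei count in treated wells divided by that in vehicle wells. Values are medians of duplicate plates.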

NCI-H727 = system: NCI-H727
Outline: as §1

NCI-H2009 = system: NCI-H2009
Outline: as §1

NCI-H1355 = system: NCI-H1355
Outline: as §1

NCI-H23 = system: NCI-H23
Outline: as §1

NCI-H650 = system: NCI-H650
Outline: as §1

NCI-H2023 = system: NCI-H2023
Outline: as §1

SK-MES-1 = system: SK-MES-1
Outline: as §1

NCI-H2405 = system: NCI-H2405
Outline: as §1

RERF-LC-KJ = system: RERF-LC-KJ
Outline: as §1

LOU-NH91 = system: LOU-NH91
Outline: as §1

HOP-62 = system: HOP-62
Outline: as §1

NCI-H1437 = system: NCI-H1437
Outline: as §1

NCI-H2085 = system: NCI-H2085
Outline: as §1

LCLC-97TM1 = system: LCLC-97TM1
Outline: as §1

HCC-78 = system: HCC-78
Outline: as §1

NCI-H1792 = system: NCI-H1792
Outline: as §1

ABC-1 = system: ABC-1
Outline: as §1

UMC-11 = system: UMC-11
Outline: as §1

NCI-H441 = system: NCI-H441
Outline: as §1

NCI-H1755 = system: NCI-H1755
Outline: as §1

`O=c1[nH]c2ccccc2n1C1CCN(CCCC(c2ccc(F)cc2)c2ccc(F)cc2)CC1` [Pimozide] + C[C@]1(O)C[C@@H](c2nc(-c3ccc4ccc(-c5ccccc5)nc4c3)c3c(N)nccn32)C1 [Linsitinib] (partner 1 µM) was tested, and the relative viability (NCI-H322M; first compound 0.253 µM) was 0.875, the relative viability (NCI-H322M; first compound 0.8 µM) was 0.79 and the relative viability (NCI-H322M; first compound 2.53 µM) was 0.834. For the same compound, the relative viability (NCI-H322M; first compound 8 µM) was 0.971, the relative viability (NCI-H727; first compound 0.08 µM) was 0.285 and the relative viability (NCI-H727; first compound 0.253 µM) was 0.337. For the same compound, the relative viability (NCI-H727; first compound 0.8 µM) was 0.307, the relative viability (NCI-H727; first compound 2.53 µM) was 0.281 and the relative viability (NCI-H727; first compound 8 µM) was 0.526. It also gave a relative viability (NCI-H2009; first compound 0.08 µM) of 1.19, a relative viability (NCI-H2009; first compound 0.253 µM) of 1.21 and a relative viability (NCI-H2009; first compound 0.8 µM) of 1.2. The relative viability (NCI-H2009; first compound 2.53 µM) was 1.2, the relative viability (NCI-H2009; first compound 8 µM) was 1.01 and the relative viability (NCI-H1355; first compound 0.08 µM) was 0.701. The relative viability (NCI-H1355; first compound 0.253 µM) was 0.804, the relative viability (NCI-H1355; first compound 0.8 µM) was 0.758 and the relative viability (NCI-H1355; first compound 2.53 µM) was 0.803. For the same compound, the relative viability (NCI-H1355; first compound 8 µM) was 0.762, the relative viability (NCI-H23; first compound 0.08 µM) was 0.609 and the relative viability (NCI-H23; first compound 0.253 µM) was 0.577. It also gave a relative viability (NCI-H23; first compound 0.8 µM) of 0.49, a relative viability (NCI-H23; first compound 2.53 µM) of 0.553 and a relative viability (NCI-H23; first compound 8 µM) of 0.513. It also gave a relative viability (NCI-H650; first compound 0.08 µM) of 0.842, a relative viability (NCI-H650; first compound 0.253 µM) of 0.792 and a relative viability (NCI-H650; first compound 0.8 µM) of 0.911. For the same compound, the relative viability (NCI-H650; first compound 2.53 µM) was 0.791, the relative viability (NCI-H650; first compound 8 µM) was 0.847 and the relative viability (NCI-H2023; first compound 0.08 µM) was 0.613. The relative viability (NCI-H2023; first compound 0.253 µM) was 0.654, the relative viability (NCI-H2023; first compound 0.8 µM) was 0.61 and the relative viability (NCI-H2023; first compound 2.53 µM) was 0.667. It also gave a relative viability (NCI-H2023; first compound 8 µM) of 0.443, a relative viability (SK-MES-1; first compound 0.08 µM) of 0.993 and a relative viability (SK-MES-1; first compound 0.253 µM) of 1.04. For the same compound, the relative viability (SK-MES-1; first compound 0.8 µM) was 1.07, the relative viability (SK-MES-1; first compound 2.53 µM) was 1.11 and the relative viability (SK-MES-1; first compound 8 µM) was 1.09. The relative viability (NCI-H2405; first compound 0.08 µM) was 0.888, the relative viability (NCI-H2405; first compound 0.253 µM) was 0.771 and the relative viability (NCI-H2405; first compound 0.8 µM) was 0.876. For the same compound, the relative viability (NCI-H2405; first compound 2.53 µM) was 0.814, the relative viability (NCI-H2405; first compound 8 µM) was 0.7 and the relative viability (RERF-LC-KJ; first compound 0.08 µM) was 0.885. It also gave a relative viability (RERF-LC-KJ; first compound 0.253 µM) of 0.813, a relative viability (RERF-LC-KJ; first compound 0.8 µM) of 0.787 and a relative viability (RERF-LC-KJ; first compound 2.53 µM) of 0.842. For the same compound, the relative viability (RERF-LC-KJ; first compound 8 µM) was 0.8, the relative viability (LOU-NH91; first compound 0.08 µM) was 0.488 and the relative viability (LOU-NH91; first compound 0.253 µM) was 0.97. For the same compound, the relative viability (LOU-NH91; first compound 0.8 µM) was 0.929, the relative viability (LOU-NH91; first compound 2.53 µM) was 1.1 and the relative viability (LOU-NH91; first compound 8 µM) was 0.959. The relative viability (HOP-62; first compound 0.08 µM) was 0.847, the relative viability (HOP-62; first compound 0.253 µM) was 0.839 and the relative viability (HOP-62; first compound 2.53 µM) was 1.04. The relative viability (HOP-62; first compound 8 µM) was 0.754, the relative viability (NCI-H1437; first compound 0.08 µM) was 1.09 and the relative viability (NCI-H1437; first compound 0.253 µM) was 1.11. The relative viability (NCI-H1437; first compound 0.8 µM) was 0.932, the relative viability (NCI-H1437; first compound 2.53 µM) was 0.899 and the relative viability (NCI-H1437; first compound 8 µM) was 0.893. It also gave a relative viability (NCI-H2085; first compound 0.08 µM) of 0.916, a relative viability (NCI-H2085; first compound 0.253 µM) of 0.934 and a relative viability (NCI-H2085; first compound 0.8 µM) of 0.818. For the same compound, the relative viability (NCI-H2085; first compound 2.53 µM) was 0.942, the relative viability (NCI-H2085; first compound 8 µM) was 0.762 and the relative viability (LCLC-97TM1; first compound 0.08 µM) was 0.179. It also gave a relative viability (LCLC-97TM1; first compound 0.253 µM) of 0.166, a relative viability (LCLC-97TM1; first compound 0.8 µM) of 0.171 and a relative viability (LCLC-97TM1; first compound 2.53 µM) of 0.169. For the same compound, the relative viability (LCLC-97TM1; first compound 8 µM) was 0.146, the relative viability (HCC-78; first compound 0.08 µM) was 0.531 and the relative viability (HCC-78; first compound 0.253 µM) was 0.469. It also gave a relative viability (HCC-78; first compound 0.8 µM) of 0.549, a relative viability (HCC-78; first compound 2.53 µM) of 0.46 and a relative viability (HCC-78; first compound 8 µM) of 0.536. The relative viability (NCI-H1792; first compound 0.08 µM) was 0.524, the relative viability (NCI-H1792; first compound 0.253 µM) was 0.495 and the relative viability (NCI-H1792; first compound 0.8 µM) was 0.417. For the same compound, the relative viability (NCI-H1792; first compound 2.53 µM) was 0.444, the relative viability (NCI-H1792; first compound 8 µM) was 0.571 and the relative viability (ABC-1; first compound 0.08 µM) was 0.825. It also gave a relative viability (ABC-1; first compound 0.253 µM) of 0.747, a relative viability (ABC-1; first compound 0.8 µM) of 0.788 and a relative viability (ABC-1; first compound 2.53 µM) of 0.629. The relative viability (ABC-1; first compound 8 µM) was 0.491, the relative viability (UMC-11; first compound 0.08 µM) was 1.02 and the relative viability (UMC-11; first compound 0.253 µM) was 0.977. It also gave a relative viability (UMC-11; first compound 0.8 µM) of 1.05, a relative viability (UMC-11; first compound 2.53 µM) of 1.07 and a relative viability (UMC-11; first compound 8 µM) of 1.09. The relative viability (NCI-H441; first compound 0.08 µM) was 0.496, the relative viability (NCI-H441; first compound 0.253 µM) was 0.53 and the relative viability (NCI-H441; first compound 0.8 µM) was 0.752. For the same compound, the relative viability (NCI-H441; first compound 2.53 µM) was 0.483, the relative viability (NCI-H441; first compound 8 µM) was 0.389 and the relative viability (NCI-H1755; first compound 0.08 µM) was 0.94. For the same compound, the relative viability (NCI-H1755; first compound 0.253 µM) was 1.02, the relative viability (NCI-H1755; first compound 0.8 µM) was 0.97 and the relative viability (NCI-H1755; first compound 2.53 µM) was 0.939. The relative viability (NCI-H1755; first compound 8 µM) was 0.845.
